Measurements as given in US20160015770A1, “COMPOSITIONS FOR TREATMENT OF RETINAL DETACHMENT” (THE REGENTS OF THE UNIVERSITY OF MICHIGAN, priority 2013, published 2016).

Biological target: T1, calpain 1 (Mus musculus, UniProt O35350)
T1 construct: endogenous in cells; host or cells: 661W mouse photoreceptor cell line
T1 sequence (O35350 1-713): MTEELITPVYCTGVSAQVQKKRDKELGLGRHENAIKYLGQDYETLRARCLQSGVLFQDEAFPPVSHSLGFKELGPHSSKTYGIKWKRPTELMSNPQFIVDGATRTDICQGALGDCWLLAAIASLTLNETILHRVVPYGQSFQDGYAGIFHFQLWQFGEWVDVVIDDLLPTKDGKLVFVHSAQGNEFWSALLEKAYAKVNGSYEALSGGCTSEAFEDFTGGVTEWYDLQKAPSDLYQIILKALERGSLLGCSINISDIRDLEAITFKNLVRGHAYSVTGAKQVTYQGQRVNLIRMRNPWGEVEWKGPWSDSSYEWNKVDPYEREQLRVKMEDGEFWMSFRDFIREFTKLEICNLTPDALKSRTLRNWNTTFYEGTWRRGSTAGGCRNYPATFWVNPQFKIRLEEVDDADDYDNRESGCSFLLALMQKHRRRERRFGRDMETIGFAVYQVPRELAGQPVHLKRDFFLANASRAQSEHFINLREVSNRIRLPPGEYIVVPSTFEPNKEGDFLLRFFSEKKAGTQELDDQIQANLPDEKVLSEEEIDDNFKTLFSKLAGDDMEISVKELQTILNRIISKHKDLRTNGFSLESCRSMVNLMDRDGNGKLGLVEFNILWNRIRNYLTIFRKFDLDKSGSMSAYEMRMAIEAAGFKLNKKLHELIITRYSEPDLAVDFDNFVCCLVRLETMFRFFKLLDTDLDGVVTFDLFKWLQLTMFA
T1 sequence (O88456 1-268 partner): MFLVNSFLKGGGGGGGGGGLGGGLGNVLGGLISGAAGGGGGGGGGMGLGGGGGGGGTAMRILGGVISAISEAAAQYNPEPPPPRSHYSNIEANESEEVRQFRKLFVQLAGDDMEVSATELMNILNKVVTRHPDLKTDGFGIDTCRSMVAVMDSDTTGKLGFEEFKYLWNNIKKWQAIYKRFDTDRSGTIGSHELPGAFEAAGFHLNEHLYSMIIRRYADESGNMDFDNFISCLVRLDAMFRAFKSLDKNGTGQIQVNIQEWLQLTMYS
Assay: Western blot of calpain 1 specific cleaved alpha-spectrin in 661W cells treated with Fas activating antibody
Assay type: cell-based
Conditions: 24 hours
Method: The 661W photoreceptor cell line was generously provided by Dr. Muayyad Al-Ubaidi (Department of Cell Biology, University of Oklahoma Health Sciences Center, Oklahoma City, Okla.). The 661W cell line was maintained in Dulbecco's modified Eagle's medium containing 10% fetal bovine serum, 300 mg/L glutamine, 32 mg/L putrescine, 40 μL/L β-mercaptoethanol, and 40 μg/L of both hydrocortisone 21-hemisuccinate and progesterone. The media also contained penicillin (90 units/mL) and streptomycin (0.09 mg/mL). Cells were grown at 37° C. in a humidified atmosphere of 5% CO2 and 95% air.
Retinas from experimental eyes with detachment (detached portion of retina only) and control eyes without detachment were dissected from the RPE-choroid, homogenized, and lysed in buffer containing 10 mM HEPES (pH 7.6), 0.5% IgEPal, 42 mM KCl, 1 mM phenylmethylsulfonyl fluoride, 1 mM EDTA, 1 mM EGTA, 1 mM dithiothreitol, 5 mM MgCl2, and one tablet of protease inhibitors per 10 mL buffer (Complete Mini; Roche Diagnostics GmbH, Madison, Wis.). 661W cells were plated at 150,000 cells per well in six-well culture dishes in growth media. After 24 hours, the cells were washed one time with warmed PBS solution and then placed in growth media without fetal bovine serum. Depending on experimental conditions, 500 ng/mL Fas activating antibody (BD Biosciences, San Jose, Calif.) and various calpain inhibitors including MDG-28170 (Sigma, St. Louis, Mo.), MG-101 (Sigma, St. Louis, Mo.), calpeptin (Santa Cruz Biotechnology, Santa Cruz, Calif.) or equal volume of DMSO was added. Calpain inhibitors were added 1 hour prior to the addition of Fas activating antibody. The cells were incubated for various lengths of time and then lysed and homogenized in lysis buffer. The homogenates were incubated on ice and centrifuged at 22,000 g at 4° C. for 60 minutes. The protein concentration of the supernatant was then determined (DC Protein Assay kit; Bio-Rad Laboratories, Hercules, Calif.). The protein samples were separated on SDS-polyacrylamide gels (Tris-HCl Ready Gels; Bio-Rad Laboratories). After electrophoretic separation, the proteins were transferred onto polyvinylidene fluoride membranes (Immobilon-P; Millipore, Billerica, Mass.). Membranes were then immunoblotted with antibodies according to the manufacturer's instructions. The following antibodies were used: LC3b (Cell Signaling, Beverly, Mass.), Atg5 (Abgent, San Diego, Calif.), Atg12 (Cell Signaling, Beverly, Mass.), calpain 1 (Cell Signaling, Beverly, Mass.), alpha-spectrin (Santa Cruz Biotechnology, Santa Cruz, Calif.), actin (Sigma, St. Louis, Mo.), and GAPDH (Abcam, Cambridge, Mass.).
After determining calpain 1 levels, it was looked to correlate this with calpain activity. […]

CCCC[C@@H](C=O)NC(=O)[C@H](CC(C)C)NC(=O)OCc1ccccc1 [calpeptin]
relative size of the effect on cleaved alpha-spectrin among the calpain inhibitors (Fas activating antibody, two concentrations): largest effect | cleaved alpha-spectrin levels (inhibitor added 1 hour before Fas activating antibody, compared to Fas activation alone): decreased
